pEC50, pIC50: −log10 of the molar value. Entries after “also recorded” stand apart in the source; their conditions may differ. Where two headings read alike, the source gives them in different places.
Key:
HIV-1 protease = HIV-1 protease (Human immunodeficiency virus type 1 group M subtype B, UniProt P03369); test: biochemical
Description: HIV-1 protease activity was measured at 37° C. using a continuous fluorimetric assay based on the method of Toth et al., (Toth et al., 1990, Int. J. Pept. Res. 36 544-550). The substrate, 2-aminobenzoyl-threonine-isoleucine-norleucine-(p-nitro)-phenylalanine-glutamine-arginine-NH2 (Abz-NF^* -6), was synthesised by solid phase peptide synthesis (Kent et al., 1991, In: Peptides 1990: Proceedings of the Twenty-First European Peptide Symposium (Girault, E. and Andrew, D. eds.) pp 172-173, ESCOM, Leiden). Enzyme activity was measured as the increase in fluorescence intensity upon substrate hydrolysis. The change in fluorescence intensity was monitored with a Perkin Elmer LS50B luminescence spectrometer fitted with a thermostatted micro cuvette holder. Measurements were carried out using an excitation wavelength of 320 nm (bandwith 5 nm) and an emission wavelength of […] (bandwith 5 nm).
Inhibition assays were routinely carried out at pH 6.5 and μ=0.1 M using a single substrate concentration. The assay mixtures contained 50 μM Abz-NF^* -6 in 100 mM 2-(N-morpholino)ethanesulphonate buffer, containing 10% (v/v) glycerol and 50 μg/ml bovine serum albumin, in a total final volume of 400 μl. Where inhibitors had to be dissolved in dimethyl sulphoxide or other organic solvents, the final concentration of solvent in the control and inhibition assays were kept absolutely constant because of the severe inhibitory effect of some solvents on the enzyme activity (Bergman et al., 1992, 17th Ann. Lorne Conf. on Protein Struct. and Funct. Abstr.). In all assays, the reaction was initiated by the addition of 10 μl of enzyme solution.

HIV = test: Activity against HIV in cells / cell culture; format: cell-based
HIV-1 (strain TC354) = test: Assay for anti-viral activity: HIV-1 (strain TC354) replication in PHA-stimulated cord blood mononuclear cells, reverse transcriptase activity; format: cell-based; conditions: read-out: effective concentration, inhibition of virus replication; for pEC50: Human immunodeficiency virus 1, 96 h
Description: Method: Target cells (PHA-stimulated cord blood mononuclear cells) were washed free of PHA and inoculated with HIV-1 (strain TC354) at a multiplicity of infection of 1, in the presence of 20 μg/ml DEAE-dextran for 30 mins. Cells were washed to remove unbound virus and residual DEAE-dextran. 10^5 cells were added to each well of 96 well plate, solutions of test compounds were added, each tested in triplicate. Dilutions were prepared in RPMI/1640. Tissue culture medium (RPMI/1640 buffer, 10% FCS, 20 U/ml […]) was added to a final volume of 200 μl. Reverse transcriptase activity was assayed four days post inoculation, RT activity >30 cpm was considered positive for HIV-1 replication.

`CC(C)(C)NC(=O)[C@@H]1CCCCN1C[C@@H](O)[C@@H]1Cc2ccc(cc2)OCCCC(=O)N[C@@H](CC(N)=O)C(=O)N1` [Compound 44] was tested, and the pIC50 (HIV-1 protease) was 7.80, the “anti-viral activity, stated in words” value (HIV) was “poor inhibitor of viral replication in cells” and the pEC50 (HIV-1 (strain TC354)) was 6.00.
For `CC(C)CCN(C[C@@H](O)[C@@H]1Cc2ccc(cc2)OCCCCC(=O)N[C@@H](C(C)C)C(=O)N1)S(=O)(=O)c1ccccc1` [Compound 68], the pEC50 (HIV-1 (strain TC354); four days post inoculation) was 7.00.
For `CC[C@H](C)[C@@H]1NC(=O)[C@@H](NC[C@@H](O)[C@H](Cc2ccccc2)NC(=O)[C@@H](NC(=O)c2ccc3ccccc3n2)C(C)C)Cc2ccc(cc2)OCCCNC1=O` [Compound 93], the “protease inhibition, stated in words” value (HIV-1 protease) was “very potent inhibitor of HIV-1 protease; also recorded: equipotent as a protease inhibitor with the DuPont-Merck compound DM323”, the pIC50 (HIV-1 protease; Table 9, R isomer, read-out: IC50) was 9.00 and the pIC50 (HIV; Human immunodeficiency virus 1, read-out: IC50, anti-viral activity against HIV in cell culture) was greater than 6.00. It also gave an EC50 (HIV-1 (strain TC354); four days post inoculation) of 100000 nM.

Source: patent US6043357A, “HIV protease inhibitors” (The University of Queensland, priority 1994, dated 2000)
